Source: PubChem BioAssay AID330 (DTP/NCI, 2004)
Several values for one entry are separate records, joined by “and”; a condition that tells them apart may be missing. Equal values may be shown once. Toxic doses and inconclusive results are not listed.

Test system: P388 leukemia ip, CD2F1 mice, survival T/C
Experiment: NCI In Vivo Anticancer Drug Screen. Data for tumor model P388 Leukemia (intraperitoneal) in CD2F1 (CDF1) mice
Details: endpoint: median survival time, higher = longer survival
Procedure, shortened: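 Mice carrying the transplanted tumor received test compound or vehicle. Survival was recorded in each group, and the value is the treated-group measurement divided by that of the vehicle-treated control group.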

[1] = dose: 100.0 mg/kg/injection, schedule: Q01DX005 (ip), vehicle: Klucel (hydroxypropylcellulose) (HPC)
[2] = dose: 200.0 mg/kg/injection, schedule: Q01DX005 (ip), vehicle: Klucel (hydroxypropylcellulose) (HPC)
[3] = dose: 120.0 mg/kg/injection, schedule: Q01DX005 (ip), vehicle: saline with Tween-80
[4] = dose: 240.0 mg/kg/injection, schedule: Q01DX005 (ip), vehicle: saline with Tween-80
[5] = dose: 50.0 mg/kg/injection, schedule: Q01DX009 (ip), vehicle: Klucel (hydroxypropylcellulose) (HPC)
[6] = dose: 100.0 mg/kg/injection, schedule: Q01DX009 (ip), vehicle: Klucel (hydroxypropylcellulose) (HPC)
[7] = dose: 200.0 mg/kg/injection, schedule: Q01DX009 (ip), vehicle: Klucel (hydroxypropylcellulose) (HPC)
[8] = dose: 25.0 mg/kg/injection, schedule: Q01DX005 (ip), vehicle: saline
[9] = dose: 50.0 mg/kg/injection, schedule: Q01DX009 (ip), vehicle: saline
[10] = dose: 100.0 mg/kg/injection, schedule: Q01DX009 (ip), vehicle: saline
[11] = dose: 200.0 mg/kg/injection, schedule: Q01DX009 (ip), vehicle: saline
[12] = dose: 50.0 mg/kg/injection, schedule: Q01DX009 (ip), vehicle: saline with Tween-80
[13] = dose: 100.0 mg/kg/injection, schedule: Q01DX009 (ip), vehicle: saline with Tween-80
[14] = dose: 200.0 mg/kg/injection, schedule: Q01DX009 (ip), vehicle: saline with Tween-80
[15] = dose: 50.0 mg/kg/injection, schedule: Q01DX005 (ip), vehicle: saline with Tween-80
[16] = dose: 100.0 mg/kg/injection, schedule: Q01DX005 (ip), vehicle: saline with Tween-80
[17] = dose: 50.0 mg/kg/injection, schedule: Q01DX005 (ip), vehicle: Klucel (hydroxypropylcellulose) (HPC)
[18] = dose: 25.0 mg/kg/injection, schedule: Q01DX009 (ip), vehicle: saline with Tween-80

ICCN(CCI)c1ccc2c(ccc3ccccc32)c1
T/C (dose: 100.0 mg/kg/injection, schedule: Q04DX003 (ip), vehicle: Klucel (hydroxypropylcellulose) (HPC)): 102 % of control | T/C (dose: 200.0 mg/kg/injection, schedule: Q04DX003 (ip), vehicle: Klucel (hydroxypropylcellulose) (HPC)): 118 % of control | T/C (dose: 400.0 mg/kg/injection, schedule: Q04DX003 (ip), vehicle: Klucel (hydroxypropylcellulose) (HPC)): 118 % of control

O=[N+]([O-])c1ccc(CN2CCC(C(=S)Nc3ccccc3)=C2c2ccccc2)cc1
T/C (dose: 6.25 mg/kg/injection, schedule: Q01DX005 (ip), vehicle: Klucel (hydroxypropylcellulose) (HPC)): 92 % of control | T/C (dose: 12.5 mg/kg/injection, schedule: Q01DX005 (ip), vehicle: Klucel (hydroxypropylcellulose) (HPC)): 90 % of control | T/C (dose: 25.0 mg/kg/injection, schedule: Q01DX005 (ip), vehicle: Klucel (hydroxypropylcellulose) (HPC)): 87 % of control | T/C [1]: 92 % of control | T/C [2]: 87 % of control

O=NN1CCCNC1=O
T/C (dose: 12.5 mg/kg/injection, schedule: Q04DX003 (ip), vehicle: saline): 118 % of control | T/C (dose: 20.0 mg/kg/injection, schedule: Q01DX009 (ip), vehicle: saline with Tween-80): 163 % of control | T/C (dose: 37.5 mg/kg/injection, schedule: Q01DX009 (ip), vehicle: saline with Tween-80): 163 % of control | T/C (dose: 40.0 mg/kg/injection, schedule: Q01DX009 (ip), vehicle: saline with Tween-80): 231 % of control | T/C (dose: 50.0 mg/kg/injection, schedule: Q04DX003 (ip), vehicle: saline): 172 % of control | T/C (dose: 66.0 mg/kg/injection, schedule: Q04DX003 (ip), vehicle: saline): 179 % of control | T/C (dose: 75.0 mg/kg/injection, schedule: Q01DX009 (ip), vehicle: saline with Tween-80): 86 % of control | T/C (dose: 100.0 mg/kg/injection, schedule: Q04DX003 (ip), vehicle: saline): 191 % of control and 216 % of control

O=C(CS(=O)(=O)O)c1ccccc1
T/C (dose: 25.0 mg/kg/injection, schedule: Q04DX002 (ip), vehicle: saline with Tween-80): 100 % of control | T/C (dose: 50.0 mg/kg/injection, schedule: Q04DX002 (ip), vehicle: saline with Tween-80): 106 % of control | T/C (dose: 100.0 mg/kg/injection, schedule: Q04DX002 (ip), vehicle: saline with Tween-80): 94 % of control and 97 % of control

CC(C)(C)C(=O)CC(=O)C(F)(F)C(F)(F)C(F)(F)F.CC(C)(C)C(=O)CC(=O)C(F)(F)C(F)(F)C(F)(F)F.CC(C)(C)C(=O)CC(=O)C(F)(F)C(F)(F)C(F)(F)F.[Ho]
T/C [3]: 111 % of control | T/C [4]: 110 % of control

N#CN=[N+]([O-])c1ccc(C(=O)O)cc1
T/C (dose: 7.5 mg/kg/injection, schedule: Q04DX003 (ip), vehicle: Klucel (hydroxypropylcellulose) (HPC)): 97 % of control | T/C (dose: 7.5 mg/kg/injection, schedule: Q04DX003 (ip), vehicle: saline with Tween-80): 111 % of control | T/C (dose: 15.0 mg/kg/injection, schedule: Q04DX003 (ip), vehicle: Klucel (hydroxypropylcellulose) (HPC)): 105 % of control | T/C (dose: 15.0 mg/kg/injection, schedule: Q04DX003 (ip), vehicle: saline with Tween-80): 112 % of control | T/C (dose: 30.0 mg/kg/injection, schedule: Q04DX003 (ip), vehicle: saline with Tween-80): 124 % of control

Cc1ccc(Cl)c(NC(=S)NCc2cccnc2)c1
T/C [5]: 97 % of control | T/C [6]: 103 % of control | T/C [7]: 108 % of control

CN(C)c1nc(N(C)C)oc(=[N+](C)C)n1
T/C (dose: 6.25 mg/kg/injection, schedule: Q01DX005 (ip), vehicle: saline): 106 % of control | T/C (dose: 12.5 mg/kg/injection, schedule: Q01DX005 (ip), vehicle: saline): 103 % of control | T/C [8]: 113 % of control

NCC(OCCCC(=O)O)C(Cl)(Cl)Cl (stereo not given)
T/C [9]: 93 % of control | T/C [10]: 101 % of control | T/C [11]: 100 % of control

CCOC(=O)c1cn[nH]c(=O)c1C
T/C [12]: 100 % of control | T/C [13]: 96 % of control | T/C [14]: 104 % of control

CC(=O)Nc1n[nH]c(C)n1
T/C [8]: 97 % of control | T/C (dose: 50.0 mg/kg/injection, schedule: Q01DX005 (ip), vehicle: saline): 106 % of control | T/C (dose: 100.0 mg/kg/injection, schedule: Q01DX005 (ip), vehicle: saline): 97 % of control

CCOC(=O)/C=C/N=[N+]=[N-]
T/C (dose: 60.0 mg/kg/injection, schedule: Q01DX005 (ip), vehicle: saline with Tween-80): 102 % of control | T/C [3]: 105 % of control | T/C [4]: 106 % of control

S=C(Nc1ccccn1)c1ccccn1
T/C [12]: 95 % of control | T/C [9]: 105 % of control | T/C [13]: 88 % of control | T/C [10]: 103 % of control | T/C [11]: 103 % of control

CCOC(=O)/C(Cl)=N/Nc1ccccc1
T/C [15]: 97 % of control | T/C [16]: 111 % of control

CCn1c2ccccc2c2cc(NC(=S)NC(=O)c3ccccc3)ccc21
T/C [15]: 87 % of control | T/C [16]: 86 % of control | T/C (dose: 200.0 mg/kg/injection, schedule: Q01DX005 (ip), vehicle: saline with Tween-80): 87 % of control

CC1=C(CCC(=O)O)c2cc3nc(cc4[nH]c(cc5[nH]c(cc1n2)c(C)c5C1CC1C(=O)O)c(C)c4C1CC1C(=O)O)C(C)=C3CCC(=O)O (stereo not given)
T/C [17]: 106 % of control | T/C [1]: 101 % of control | T/C [2]: 95 % of control

NC(N)=O
T/C (dose: 12.5 mg/kg/injection, schedule: Q01DX009 (ip), vehicle: saline): 100 % of control | T/C (dose: 25.0 mg/kg/injection, schedule: Q01DX009 (ip), vehicle: saline): 105 % of control | T/C [9]: 105 % of control | T/C [10]: 102 % of control | T/C [11]: 100 % of control | T/C (dose: 400.0 mg/kg/injection, schedule: Q01DX009 (ip), vehicle: saline): 98 % of control

S=C1SCCCN1Cc1ccc(Cl)cc1
T/C [5]: 95 % of control | T/C [6]: 104 % of control | T/C [7]: 107 % of control

O=C1/C(=C\c2ccc([N+](=O)[O-])cc2)CS(=O)(=O)C/C1=C/c1ccc([N+](=O)[O-])cc1
T/C [18]: 95 % of control | T/C [12]: 94 % of control | T/C [13]: 105 % of control | T/C [14]: 116 % of control

CSc1ccc(N2C(=O)CSC2=S)cc1Cl
T/C (dose: 50.0 mg/kg/injection, schedule: Q01DX009 (ip), vehicle: suspension in saline): 101 % of control | T/C (dose: 100.0 mg/kg/injection, schedule: Q01DX009 (ip), vehicle: suspension in saline): 99 % of control | T/C (dose: 200.0 mg/kg/injection, schedule: Q01DX009 (ip), vehicle: suspension in saline): 104 % of control

CC(C(=O)O)c1ccc2c(c1)[nH]c1ccc(Cl)cc12 (stereo not given)
T/C (dose: 6.25 mg/kg/injection, schedule: Q01DX009 (ip), vehicle: saline with Tween-80): 106 % of control | T/C (dose: 12.5 mg/kg/injection, schedule: Q01DX009 (ip), vehicle: saline with Tween-80): 106 % of control | T/C [18]: 105 % of control

COC(C(OC)N1CCOCC1)N1CCOCC1 (stereo not given)
T/C [12]: 100 % of control | T/C [13]: 104 % of control | T/C [14]: 113 % of control

CC/C(=N/N(C)C)C(=O)OC(C)(C)C
T/C (dose: 60.0 mg/kg/injection, schedule: Q01DX005 (ip), vehicle: saline): 95 % of control | T/C (dose: 120.0 mg/kg/injection, schedule: Q01DX005 (ip), vehicle: saline): 93 % of control | T/C (dose: 240.0 mg/kg/injection, schedule: Q01DX005 (ip), vehicle: saline): 90 % of control

CSc1nc(N)c(C(=O)N(c2ccccc2)c2ccccc2)s1
T/C [5]: 100 % of control | T/C [6]: 108 % of control | T/C [7]: 98 % of control

COc1cccc(-c2nc(-c3ccccc3)nc(N(C)C)n2)c1O
T/C (dose: 60.0 mg/kg/injection, schedule: Q01DX005 (ip), vehicle: Klucel (hydroxypropylcellulose) (HPC)): 98 % of control | T/C (dose: 120.0 mg/kg/injection, schedule: Q01DX005 (ip), vehicle: Klucel (hydroxypropylcellulose) (HPC)): 92 % of control

c1c[nH]c(C2Nc3ccccc3CO2)c1 (stereo not given)
T/C [17]: 115 % of control | T/C [1]: 107 % of control | T/C [2]: 112 % of control
